The conditions of data set [1]: background; cited from earlier work.
The nature of another data set: Viscosity of the solvent. Format: physicochemical. The note with it: 100° F; Table 2.
A further data set in a line: Color of the solvent. Conditions: Table 2, solvent. Format: physicochemical.
The nature of data set [2]: Acute toxicity (LD50, per oral and cutaneous). The note with it: ICR-JCL mice. Format: in vivo, Strain ICR-JCL Mice. An excerpt: Used as test animal are Strain ICR-JCL Mice (Nippon Clea Co., Ltd.)

A value given as a limit tells only on which side of the number the result lay.

Turning to `ClC1C(Cl)C(Cl)C(Cl)C(Cl)C1Cl` (centres unmarked) [BHC], in data set [1], the “accumulation in the bodies of many animals” value (shortened to “accumulation in the bodies”) is given as “accumulates”.
Consider `Clc1ccc(C(c2ccc(Cl)cc2)C(Cl)(Cl)Cl)cc1` [DDT], for which the “accumulation in the bodies” value in data set [1] is reported as “accumulates”.
The molecule butylnaphthalene [Butyl-naphthalene] registered a Viscosity in the data set “Viscosity of the solvent” of 4.2 cst. Further, the Color entry in the data set “Color of the solvent” was “None”.
The molecule diethylnaphthalene [Diethyl-] returned a Viscosity in the data set “Viscosity of the solvent” of 3.6 cst. In addition, in the data set “Color of the solvent”, the Color entry was “None”.
For “dimethylpropylnaphthalene [Dimethyl propyl]”, in that order: 5.1 cst and “None”.
As to dipropylnaphthalene, in data set [2], the “LD50 Cutaneous” value is no less than 30 mL/kg and the “LD50 Per Oral” value amounted to 9.5 mL/kg. Moreover, in the data set “Viscosity of the solvent”, the Viscosity was 8.5 cst. Also, the Color entry in “Color of the solvent” is recorded as “None”.
In “Viscosity of the solvent”, ethylpropylnaphthalene [Ethyl propyl] showed a Viscosity of 5.2 cst. Also, the Color entry in the data set “Color of the solvent” is given as “None”.
For methylbutylnaphthalene [Methyl Butyl], in that order: 5.0 cst and “None”.
For methylpropylnaphthalene [Methyl propyl], in that order: 4.0 cst and “None”.
On to “polychlorobiphenyl [PCB, reference compound]”, for which, in data set [1], the “accumulation in the bodies” value is on record as “accumulates” and the biodegradability entry is given as “low biodegradability”. Further, in data set [2], the “LD50 Cutaneous” value was 1.25 mL/kg and the “LD50 Per Oral” value worked out at 1.7 mL/kg. Also, the Color result in “Color of the solvent” is on record as “None”.

The values are drawn from US4003589A, “Carbonless copying paper” (Kureha Kagaku Kogyo Kabushiki Kaisha, priority 1970, dated 1977).
